Values after ≈ are worked out from the molar mass of the structure shown.

One may read the solubility as the concentration that dissolves in the medium under given conditions. A lower solubility goes with a poorly soluble substance.

A short description of series [1]: Chemical stability of compositions on storage (total impurities). It is filed as physicochemical. An excerpt:
[No. 1 in FIG. 3b is isopropyl ((R)—((((R)-1-(6-amino-9H-purin-9-yl)propan-2-yl)oxy)methyl) (phenoxy)phosphoryl)-L-alaninate]

The nature of another series: physchem. Particulars: water.
The conditions of series [2]: cited from earlier work.
Series [3] can be described thus: Syringeability/injectability with various wetting agents. The format is physicochemical. Particulars: 40% TAF/60% PLGA 5050, 125 mg/mL suspension, wetting agent in minimal amounts. On the procedure:
Suspending vehicles with various wetting agents were prepared. […] A formulation 40% TAF (free base, crystalline, and micronized) and 60% PLGA 5050 was used to obtain a 125 mg/mL suspension. These suspensions were evaluated for syringeability/injectability. […] Additionally, Tween 80 could accommodate sterilization via filtration.

Take `CC(C)OC(=O)[C@H](C)N[P@](=O)(CO[C@H](C)Cn1cnc2c(N)ncnc21)Oc1ccccc1` [Free base, (S)-isopropyl-2-(((S)—((((R)-1-(6-amino-9H-purin-9-yl)propan-2-yl)oxy)methyl)(phenoxy)phosphoryl)amino)propanoate]: the total impurities in series [1] (40° C./75% RH closed for 2 weeks) came to 2.1%. The “total impurities observed initially” value in series [1] (initial) amounted to 2.1%. Besides, the solubility in “physchem” was ~3500 µg/mL (≈ 7.35 mM).

Consider Poly(D,L-lactide) [PDLLA], for which the “degradation time in vivo” value in series [2] is 12-18 months.

On to polysorbate 80 [Tween 80], for which the “syringeability/injectability through a 20 G needle” value in series [3] is “improved syringeability/injectability”.
